# Like-named read-outs stand apart in the source and are kept apart here.
# Tests used:
# [1] = molecular target: Pimelobacter simplex PinR (AIY20223.2; SEQ ID NO: 1), his-tagged (AIY-his6); assay: QD-FRET steroid sensor (QD-PinR + DNA-Cy5), steroid-induced TF-DNA unbinding; format: biochemical
# Description: Fluorescent spectra were analyzed using MATLAB (Mathworks) and were fitted with a sum of 2 Gaussians (D=QD: FWHM=27 nm, λmax=607 nm; A=DNA-Cy5: FWHM=40 nm, λmax=669 nm). The area of each Gaussian was extracted and FD and FA are obtained respectively for the fluorescence of QD (donor) and Cy5 (acceptor).
# Raw dose-response curves were obtained by plotting FA/FD as a function of the steroid concentration. Sensor output is the normalization of the fluorescent spectra of the donor and acceptor according to the following equation: […]
# Non-normalized dose-response were fitted with Origin Pro 8 software with the non-linear equation: […]
# The cross-reactivity of progesterone regarding the different steroids was calculated with the following equation: […]
# CdSe/CdS/ZnS QDs were coated with a zwitterionic polymer bearing histamine anchoring functions (P1, SI). Once the hydrophobic QDs were transferred into H2O using a biphasic ligand exchange, his-tagged TFs were self-assembled on the QD surface to produce the QD-TF. Addition of the double stranded, Cy5-labeled TF-binding sequence completed probe assembly as the oligo binds to the TF in the absence of progesterone (PRG). The molar ratios of the QD, TF, and DNA in the sensor were controlled through the stoichiometric ratios of the mixed parts.
# Two fluorescent spectra were recorded, one from the QDs and one from the Cy5 due to the FRET.
# First, the DNA1 (most binding sequence) has been used to build the first biosensor, named sensor 1. For this sensor, a ratio of QD/TF/DNA of 1/4/18 was chosen. […] In order to homogenize the fluorescent signals in between batches and different sensor variations, FA/FD was normalized to give the signal output. Signal output is then plotted against PRG concentration to give a dose-response curve (FIG. 9C) This curve was fitted with the non-linear equation XX to obtain the half-maximal inhibitory concentration (IC50) (Table 13).
# Description for a typical experiment, using a molar ratio of QD/TF/DNA=1/4/18. QDs in (275 uL, 0.15 uM in HEPES 1×, pH 7.6 with 1% BSA) were mixed with AIY-his6 (275 uL, 0.6 uM in HEPES 1× pH 7.6) at room temperature for 45 min. Then, the double-stranded DNA labelled with a Cy5 fluorescent probe at the 3′ and 5′ ends (275 uL, 2.7 uM in HEPES 1× pH 7.6) was added to the mixture. After 30 min, 220 uL of HEPES 1× pH 7.5 and 330 uL of 5× binding buffer (25 mM MgCl2, 25% glycerol, and 250 mg/L Invitrogen™ UltraPure™ Salmon Sperm DNA in Tris-HCl 0.1M) were added and the mixture is left 15 more min at RT.
# 50 uL of the sensor (QD/TF/DNA) was then splitted in 3×9 centrifuge tubes to which 10 uL of progesterone at the desired concentration is added. As such, the final concentration of QD/TF/DNA for the measurements is 25 nM/100 nM/450 nM. A 384 well plate was filled with 60 uL of each solution. The fluorescence intensity was monitored on a spectrofluorimeter from 535 nm to 800 nm exciting at 400 nm, equipped with a 450 nm long-pass filter in emission.
# Pimelobacter simplex = assay: Solvent and steroid exposure growth curves; conditions: P. simplex, starting OD 0.005, constant solvent
compound,measurement,setting,value
"CC(=O)[C@H]1CC[C@H]2[C@@H]3CCC4=CC(=O)CC[C@]4(C)[C@H]3CC[C@]12C [PRG, Progesterone]",IC50,"[1]; DNA1, QD/TF/DNA 1/4/18, read-out: X0",460 ± 20 nM
same,IC50,"[1]; DNA2, QD/TF/DNA 1/4/18, read-out: X0",370 ± 10 nM
same,IC50,"[1]; DNA 3, QD/TF/DNA 1/1/2, read-out: X0",210 nM
same,IC50,"[1]; DNA 3, QD/TF/DNA 1/1/18, read-out: X0",350 nM
same,IC50,"[1]; DNA 3, QD/TF/DNA 1/2/2, read-out: X0",270 nM
same,IC50,"[1]; DNA 3, QD/TF/DNA 1/2/18, read-out: X0",410 nM
same,IC50,"[1]; DNA 3, QD/TF/DNA 1/4/2, read-out: X0",200 nM
same,IC50,"[1]; DNA 3, QD/TF/DNA 1/4/18 (Table 11), read-out: X0",290 nM
same,IC50,"[1]; DNA3, QD/TF/DNA 1/4/18, read-out: X0",290 ± 20 nM
same,IC50,"[1]; DNA 3, QD/TF/DNA 1/10/18, read-out: X0",390 nM
same,IC50,"[1]; DNA 3, QD/TF/DNA 1/16/18, read-out: X0",440 nM
same,IC50,"[1]; DNA 4, QD/TF/DNA 1/1/4, read-out: X0",49 ± 12 nM
same,IC50,"[1]; DNA 4, QD/TF/DNA 1/1/18, read-out: X0",74 ± 18 nM
same,IC50,"[1]; DNA 4, QD/TF/DNA 1/4/9, read-out: X0",140 ± 14 nM
same,IC50,"[1]; DNA 4, QD/TF/DNA 1/4/18 (Table 12), read-out: X0",150 ± 12 nM
same,IC50,"[1]; DNA4, QD/TF/DNA 1/4/18, read-out: X0",150 ± 10 nM
same,IC50,"[1]; DNA 4, QD/TF/DNA 1/16/8, read-out: X0",380 ± 16 nM
same,IC50,"[1]; sensor 2 (DNA 2, QD/TF/DNA=1/4/18), read-out: IC50",133 ± 9 nM
same,IC50,"[1]; sensor 3 (DNA 2, QD/TF/DNA=1/1/18), read-out: IC50",57 ± 3 nM
same,highest steroid concentration exhibiting normal growth profile,Pimelobacter simplex,21.88 µM

# Source: US11360104B2, “Microbial-based biosensors” (TRUSTEES OF BOSTON UNIVERSITY, priority 2017, dated 2022)
